Data published in US10370538B2 (priority 2015, dated 2019).
“Also recorded” adds a separate entry of the source.

Assays:
mycobacteria = conditions: reported in the literature; cited from earlier work
M. smegmatis = conditions: 10 μM, room temperature, 1 h, washed
Method: FIGS. 5A-5C illustrate freshly cultured E. coli (TOP10), S. pneumoniae, S. aureus, S. sanguinis, C. propinquum, C. striatum and M. smegmatis were incubated with PBS, 10 μM of TG, TG-DNB1 or TG-DNB2 at room temperature for 1 h. Cells were washed stringently with PBS for 3 times then fixed in 10% formalin solution for 30 min before vizualized with a confocal microscope (63×/oil, Ex/Em-FITC).
The fold increasing (F/FPBS) was calculated by normalizing against the fluorescence intensity of PBS-treated cells. Experiments were performed twice with similar results.
Freshly cultured E. coli (TOP10), E. coli expressing TEM1-β-lactamase, S. pneumoniae, S. aureus, S. sanguinis, C. propinquum, C. striatum, and M. smegmatis were incubated with PBS, 10 μM CDG1, CDG-DNB1, or CDG-DNB2 at room temperature for 1 h. Cells were washed 3 times PBS and then fixed in 10% formalin solution for 30 min before analyzed with a confocal microscope under 63×/oil, Ex/Em-FITC.
The fluorescence intensity of PBS treated cells of each strain was arbitrarily set as 1 to show the fold increasing (F/FPBS).

[1] = system: E. coli expressing TEM1-β-lactamase; format: cell-based
BCG [2] = format: cell-based, Mycobacterium bovis; conditions: 10 μM, room temperature, 1 h, washed
[3] = system: Mycobacterium tuberculosis H37Rv; format: cell-based
BCG [4] = format: cell-based, Mycobacterium bovis; conditions: 10 μM, no washing
[5] = system: patients' clinical sputum samples; test: staining of patients' processed sputum samples; format: cell-based; conditions: 10 μM, 1 h, room temperature
Method: FIG. 15 is a series of digital fluorescence confocal microscope images of CDG-DNB2 stained patients' processed sputum samples. Processed sputum samples were centrifuged and resuspended in 10 μM CDG-DNB2 for 1 h at room temperature. Cells were pelleted and washed stringently 3 times with PBS before fixation with 10% formalin for 30 min. Cells were further visualized using a confocal microscope at 20× or 60×/Ex 490-Em520.
Clinical study with CDG-DNB2: Probe CDG-DNB2 has been evaluated in patients' clinical sputum samples: 4 positive and 4 negative samples.

[6] = target: M. smegmatis DprE1 protein (Mycolicibacterium smegmatis, UniProt A0R607); test: fluorescence labeling of purified DprE1 protein by dye-DNB analogues in the presence of M. smegmatis lysate; format: biochemical; conditions: for covalent fluorescence labeling of DprE1 protein: 10 μM probe, in the presence of M. smegmatis lysate
M. smegmatis DprE1 protein, sequence (A0R607 whole entry): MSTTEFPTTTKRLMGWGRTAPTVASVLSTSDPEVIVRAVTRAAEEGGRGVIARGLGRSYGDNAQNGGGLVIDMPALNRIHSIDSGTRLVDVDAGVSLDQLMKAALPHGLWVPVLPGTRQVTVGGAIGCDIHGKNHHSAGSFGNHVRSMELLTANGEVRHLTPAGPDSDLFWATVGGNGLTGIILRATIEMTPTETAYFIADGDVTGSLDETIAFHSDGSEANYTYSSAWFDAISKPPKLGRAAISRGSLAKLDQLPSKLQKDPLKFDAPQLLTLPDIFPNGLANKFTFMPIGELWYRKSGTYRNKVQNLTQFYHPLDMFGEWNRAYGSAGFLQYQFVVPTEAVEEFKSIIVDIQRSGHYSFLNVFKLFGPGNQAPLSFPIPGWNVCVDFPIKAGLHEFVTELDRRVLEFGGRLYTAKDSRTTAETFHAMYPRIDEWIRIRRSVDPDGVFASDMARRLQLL

SMILES: C[C@H]1COC2(CCN(c3nc(=O)c4cc(C(F)(F)F)cc([N+](=O)[O-])c4s3)CC2)O1 [BTZ043]
- antimycobacterial activity (mycobacteria): potent antimycobacterial agents

SMILES: COc1ccc(-c2c3ccc(=O)cc-3oc3cc(OCc4ccc(OCC5=C(C(=O)O)N6C(=O)[C@@H](NC(=O)Cc7ccccc7)[C@H]6SC5)cc4)ccc23)c(C)c1 [CDG-1]
- trapping of fluorescence signal in or on M. smegmatis cells (M. smegmatis): cannot be trapped in or on the cells

SMILES: Cc1cc(OCCNC(=O)c2cc([N+](=O)[O-])cc([N+](=O)[O-])c2)ccc1-c1c2ccc(=O)cc-2oc2cc(OCc3ccc(OCC4=C(C(=O)O)N5C(=O)[C@@H](NC(=O)Cc6ccccc6)[C@H]5SC45CC5)cc3)ccc12 [CDG-DNB2]
- hydrolysis of probe by TEM1 β-lactamase-transformed E. coli [1]: can hydrolyze CDG-DNB2 and generate the uncaged fluorescent signal
- retention of fluorescence in TEM1 β-lactamase-transformed E. coli [1]: cannot retain the fluorescence
- staining of BCG (confocal) (BCG [2]): exhibited an intense (green) fluorescent signal
- fold increase of fluorescence intensity over control levels, H37Rv [3]: about 20 fold
- staining of H37Rv (confocal) [3]: exhibited an intense (green) fluorescent signal
- time at which prominent fluorescence was observed (BCG [4]; imaged every 2.5 min from 5 min): 15 min
- continuous enhancement of fluorescence till (BCG [4]; time at which imaging was stopped): 75 min
- staining of negative sputum samples ([5]; 4 negative samples): all the negative samples had little background fluorescence
- staining of positive sputum samples ([5]; 4 positive samples): 4 positive samples all displayed green fluorescence-stained bacteria

SMILES: COc1ccc(OCCNC(=O)c2cc([N+](=O)[O-])cc([N+](=O)[O-])c2)cc1 [DNB1, reference compound]
- DprE1 labeling by TG-DNB analogues after pre-incubation with DNB1 ([6]; DprE1SM incubated with 50 μM DNB1 for one hour prior to addition of TG-DNB1): abolished the band
- antimycobacterial activity (mycobacteria): potent antimycobacterial agents

SMILES: Cc1cc(OCCn2cc(CNC(=O)c3cc([N+](=O)[O-])cc([N+](=O)[O-])c3)nn2)ccc1-c1c2ccc(=O)cc-2oc2cc(O)ccc12 [TG-DNB1]
- covalent fluorescence labeling of DprE1 protein [6]: significantly higher labeling capability than did the two mononitro compounds; also recorded: a fluorescent band was observed

SMILES: Cc1cc(OCCNC(=O)c2cc([N+](=O)[O-])cc([N+](=O)[O-])c2)ccc1-c1c2ccc(=O)cc-2oc2cc(O)ccc12 [TG-DNB2]
- covalent fluorescence labeling of DprE1 protein [6]: significantly higher labeling capability than did the two mononitro compounds; also recorded: a fluorescent band was observed
